We go through nine molecules from ChEMBL document CHEMBL1139045, “Design and synthesis of a novel class of dual PPARgamma/delta agonists” (Bioorg Med Chem Lett, 2007).

Molecules are shown by their SMILES.

In data set [1] the target is T1, Peroxisome proliferator-activated receptor alpha (Homo sapiens, UniProt Q07869).
T1 sequence (Q07869 whole entry): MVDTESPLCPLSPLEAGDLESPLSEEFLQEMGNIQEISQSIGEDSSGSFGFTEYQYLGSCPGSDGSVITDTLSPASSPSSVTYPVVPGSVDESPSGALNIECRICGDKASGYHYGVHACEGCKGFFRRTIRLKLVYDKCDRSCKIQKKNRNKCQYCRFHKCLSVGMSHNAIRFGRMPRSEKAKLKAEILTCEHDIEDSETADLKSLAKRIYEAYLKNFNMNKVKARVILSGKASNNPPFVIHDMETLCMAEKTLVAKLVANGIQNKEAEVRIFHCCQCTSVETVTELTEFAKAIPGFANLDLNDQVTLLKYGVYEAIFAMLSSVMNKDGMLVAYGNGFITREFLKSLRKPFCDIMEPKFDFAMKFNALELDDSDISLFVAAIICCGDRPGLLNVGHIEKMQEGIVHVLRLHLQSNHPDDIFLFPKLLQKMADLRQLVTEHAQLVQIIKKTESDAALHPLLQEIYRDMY
The format is functional, cell-based, CV-1.

For data set [2], the target named is T1, Peroxisome proliferator-activated receptor alpha.
For data set [3], the target named is T2, Peroxisome proliferator-activated receptor delta (Homo sapiens, UniProt Q03181).
T2 sequence (Q03181 whole entry): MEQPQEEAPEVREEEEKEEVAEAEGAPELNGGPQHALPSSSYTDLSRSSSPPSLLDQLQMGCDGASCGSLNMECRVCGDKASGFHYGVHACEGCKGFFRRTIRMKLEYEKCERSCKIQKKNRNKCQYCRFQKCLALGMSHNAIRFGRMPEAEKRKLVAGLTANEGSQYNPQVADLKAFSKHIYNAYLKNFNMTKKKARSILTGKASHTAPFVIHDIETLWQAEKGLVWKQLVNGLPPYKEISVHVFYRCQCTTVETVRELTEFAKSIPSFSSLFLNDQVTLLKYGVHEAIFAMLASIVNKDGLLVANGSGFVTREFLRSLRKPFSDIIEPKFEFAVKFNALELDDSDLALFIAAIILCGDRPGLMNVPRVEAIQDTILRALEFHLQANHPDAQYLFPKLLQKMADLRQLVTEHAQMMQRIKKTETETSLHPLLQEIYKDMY
The format is functional, cell-based, CV-1.

Data set [4] has as its target T2, Peroxisome proliferator-activated receptor delta.
Data set [5] is described as follows: in vivo. Particulars: Sprague-Dawley, rat, po, 12 mg/kg.
Data set [6] in a line: in vivo. The note with it: Sprague-Dawley, rat, po, 12 mg/kg. The source holds these as a separate data set.
Data set [7] in a line: in vivo. Particulars: Sprague-Dawley, rat, po, 12 mg/kg. The source holds these as a separate data set.
Data set [8] is described as follows: in vivo. Particulars: Sprague-Dawley, rat, iv, 1 mg/kg.
A short description of data set [9]: in vivo. Particulars: db/db, mouse.

On to `CCc1ccc(O[C@H](C)CCOc2ccc(CCC(=O)O)c(C)c2)c(-c2ccco2)c1`, for which the midpoint of the response in data set [1], the EC50, lay at 2.8 µM. Also, in [2], the half-maximal inhibitory concentration (IC50) is 4.5 µM.

As to `Cc1cc(OCC[C@@H](C)Oc2ccc(C(F)(F)F)cc2-c2ccccn2)ccc1CCC(=O)O`, the values for the EC50 in [1] and in data set [3] were 2.34 µM and 0.006 µM, respectively. Besides, the values for the IC50 in [2] and in data set [4] were 5.88 µM and 0.004 µM, respectively.

Consider `CCc1ccc(O[C@H](C)CCOc2ccc(CCC(=O)O)c(C)c2)c(-c2cccnc2)c1`, for which the EC50 in data set [1] was determined as 2.9 µM.

`CCc1ccc(O[C@H](C)CCOc2ccc(CCC(=O)O)c(CC)c2)c(-c2ccccn2)c1` showed an EC50 in data set [3] of 0.007 µM. For the same molecule, the IC50 in data set [2] came out at 7.35 µM; in data set [4] it was 0.003 µM. Besides, the bioavailability in [5] was 71%. In [6], the half-life is 3 h. The AUC in data set [7] was determined as 75.5 µg·h/mL. In [8], this molecule came in with a clearance of 0.114 L/h/kg.

Molecule `CCc1ccc(O[C@H](C)CCOc2ccc(CCC(=O)O)c(C)c2)c(-c2cocn2)c1` returned an EC50 in [1] of 2.81 µM. This molecule gave a half-inhibitory concentration (IC50) in [2] of 4.99 µM.

For the molecule `CCc1cc(OCC[C@@H](C)Oc2ccc(C(F)(F)F)cc2-c2ccccn2)ccc1CCC(=O)O`, the results for the EC50 in data set [1] and in data set [3] were 2.63 µM and 0.006 µM, respectively. For the same molecule, the half-maximal inhibitory concentration (IC50) stood at 6.09 µM in data set [2] and 0.003 µM in data set [4]. Further, in data set [9], the concentration at 1 h is 4.2 µg/mL.

In data set [2], `CCc1ccc(O[C@H](C)CCOc2ccc(CCC(=O)O)c(C)c2)c(-c2ccsc2)c1` gave a half-maximal inhibitory concentration (IC50) of 5.95 µM.

`CCc1ccc(O[C@H](C)CCOc2ccc(CCC(=O)O)c(C)c2)c(-c2ncco2)c1` came in with a concentration giving a half-maximal response (EC50) in [1] of 2.89 µM. In data set [2], this molecule showed an IC50 of 10.4 µM.

Consider `CCc1ccc(O[C@H](C)CCOc2ccc(CCC(=O)O)c(C)c2)c(-c2cscn2)c1`, for which the EC50 in data set [1] turned out to be 2.68 µM. In [2], inhibition was half-maximal at 4.1 µM (IC50).

The term EC50 denotes the concentration giving half of the maximal effect. In general, IC50 refers to the concentration that inhibits the measured activity by half. By bioavailability is commonly meant the share of a dose that reaches the circulation, judged against a reference dose that is usually intravenous. A higher bioavailability goes with good availability. One may read the half-life as the time in which the quantity being followed falls by half. For orientation: AUC means concentration integrated over time. A low value points to less exposure. Broadly, the clearance is the rate of elimination divided by the concentration. Lower therefore signals a low capacity for elimination.
